In PubChem BioAssay AID290 (DTP/NCI, 2004):
Where “and” joins values, the source holds several entries; their conditions need not be identical. Identical values can stand only once. Results filed as inconclusive are left out.

System: mice, P1798 lymphosarcoma sc, survival or tumor weight T/C
Assay: NCI In Vivo Anticancer Drug Screen. Data for tumor model P1798 Lymphosarcoma (subcutaneous) in unknown mice
Details: endpoint: mean tumor weight, higher = larger tumour
Method: The antitumor activity of compounds was measured in mice bearing transplantable tumors. Survival or tumor size were measured and the results are expressed as the measurement made in the treated group (T) divided by the measurement made in the vehicle treated control group (C). The tumor model used in this assay is P1798 Lymphosarcoma (subcutaneous) in unknown mice

[1] = dose: 12.5 mg/kg/injection, schedule: Q01DX010 (ip), vehicle: saline
[2] = dose: 25.0 mg/kg/injection, schedule: Q01DX010 (ip), vehicle: saline
[3] = dose: 25.0 mg/kg/injection, schedule: Q01DX010 (ip), vehicle: carboxymethylcellulose (CMC)
[4] = dose: 50.0 mg/kg/injection, schedule: Q01DX010 (ip), vehicle: carboxymethylcellulose (CMC)

Structure (SMILES): COS(C)(=O)=O
- T/C [1]: 98 % of control
- T/C [2]: 80 % of control
- T/C (dose: 50.0 mg/kg/injection, schedule: Q01DX010 (ip), vehicle: saline): 81 % of control
- T/C (dose: 100.0 mg/kg/injection, schedule: Q01DX010 (ip), vehicle: saline): 57 % of control

Structure (SMILES): Nc1nc(=S)c2ncn(C3OC(CO)C(O)C3O)c2[nH]1 (stereo not given)
- T/C (dose: 0.31 mg/kg/injection, schedule: Q01DX010 (ip), vehicle: carboxymethylcellulose (CMC)): 79 % of control
- T/C (dose: 0.63 mg/kg/injection, schedule: Q01DX010 (ip), vehicle: carboxymethylcellulose (CMC)): 71 % of control
- T/C (dose: 1.25 mg/kg/injection, schedule: Q01DX010 (ip), vehicle: carboxymethylcellulose (CMC)): 50 % of control
- T/C (dose: 2.0 mg/kg/injection, schedule: Q01DX010 (ip), vehicle: saline): 55 % of control
- T/C (dose: 2.5 mg/kg/injection, schedule: Q01DX010 (ip), vehicle: carboxymethylcellulose (CMC)): 31 % of control
- T/C (dose: 4.0 mg/kg/injection, schedule: Q01DX010 (ip), vehicle: saline): 63 % of control

Structure (SMILES): CN(N=O)C(N)=O
- T/C [1]: 10 % of control
- T/C [2]: 13 % of control

Structure (SMILES): CN(C)/N=N/c1nc[nH]c1C(N)=O
- T/C (dose: 75.0 mg/kg/injection, schedule: Q01DX015 (ip), vehicle: carboxymethylcellulose (CMC)): 73 % of control
- T/C (dose: 100.0 mg/kg/injection, schedule: Q01DX015 (ip), vehicle: carboxymethylcellulose (CMC)): 69 % of control
- T/C (dose: 125.0 mg/kg/injection, schedule: Q01DX015 (ip), vehicle: carboxymethylcellulose (CMC)): 57 % of control
- T/C (dose: 150.0 mg/kg/injection, schedule: Q01DX015 (ip), vehicle: carboxymethylcellulose (CMC)): 52 % of control

Structure (SMILES): O=c1[nH]c(=O)n(C2CC(O)C(CO)O2)cc1F (stereo not given)
- T/C [3]: 42 % of control
- T/C [4]: 30 % of control

Structure (SMILES): O=c1cn[nH]c(=O)[nH]1
- T/C (dose: 375.0 mg/kg/injection, schedule: Q01DX010 (ip), vehicle: carboxymethylcellulose (CMC)): 90 % of control

Structure (SMILES): Cn1c(O)c(N=NC(N)=S)c2ccccc21
- T/C (dose: 25.0 mg/kg/injection, schedule: Q01DX011 (ip), vehicle: carboxymethylcellulose (CMC)): 206 % of control
- T/C (dose: 50.0 mg/kg/injection, schedule: Q01DX011 (ip), vehicle: carboxymethylcellulose (CMC)): 117 % of control
- T/C (dose: 100.0 mg/kg/injection, schedule: Q01DX011 (ip), vehicle: carboxymethylcellulose (CMC)): 87 % of control

Structure (SMILES): Nc1ncnc2[nH]ncc12
- T/C (dose: 6.25 mg/kg/injection, schedule: Q01DX010 (ip), vehicle: carboxymethylcellulose (CMC)): 73 % of control
- T/C (dose: 12.5 mg/kg/injection, schedule: Q01DX010 (ip), vehicle: carboxymethylcellulose (CMC)): 64 % of control

Structure (SMILES): CN(C)CC(=O)c1ccc(O)c(O)c1
- T/C (dose: 250.0 mg/kg/injection, schedule: Q01DX010 (ip), vehicle: saline): 154 % of control

Structure (SMILES): N#CCSc1ncnc2nc[nH]c12
- T/C [3]: 49 % of control
- T/C [4]: 46 % of control

Structure (SMILES): C1CN1c1nc(N2CC2)nc(N2CC2)n1
- T/C (dose: 0.06 mg/kg/injection, schedule: Q01DX010 (ip), vehicle: saline): 77 % of control and 78 % of control
- T/C (dose: 0.12 mg/kg/injection, schedule: Q01DX010 (ip), vehicle: saline): 78 % of control and 86 % of control
- T/C (dose: 0.25 mg/kg/injection, schedule: Q01DX010 (ip), vehicle: saline): 44 % of control and 54 % of control
